Values after ≈ are worked out from the molar mass of the structure shown. Values joined by “and” are separate entries in the source; they are usually repeats but may differ in a detail not shown here. Identical values can stand only once.
Tests used:
[1] = Phase 2A study (Magnolia) in women with postpartum depression: ganaxolone plasma concentrations / pharmacokinetics; conditions: for Ratio GNX Concentration (ng/mL)/(μg/hr/kg): individual subjects of Cohorts 1-3 (order of Table 1A), listed as GNX
Protocol: Approximately 200 women with PPD 18 to 45 years of age are screened to randomize up to 100 subjects across up to 6 cohorts. Approximately 10-30 subjects are randomized into each cohort. Randomized subjects receive the investigational product (IP), ganaxolone or matching placebo in a 1:1 ratio. In Cohorts 1-5 the IP is administered intravenously over 60 hours. In Cohort 6 the dosing is initiated with a 6-hour intravenous (IV) infusion followed by oral dosing for 28 days plus 3-day taper.
Ganaxolone is infused at a rate of 4 mg/hr (16 ml/h of ganaxolone 0.25 mg/ml solution) for 48 hours and then, to minimize any risks for withdrawal or rebound of anxiety and depression symptoms, at a rate of 2 mg/hr for the next 12 hours. The infusion is stopped at 60 hours. Total of 9 subjects are dosed for this cohort.
Ganaxolone is infused at a rate of 8 mg/hr (16 ml/h of ganaxolone 0.5 mg/ml solution) for 48 hours and then at a rate of 4 mg/hr for the next 12 hours. This dose is approximately double the expected plasma exposure as compared to Cohort 1 at steady state (Cohort 2 expected plasma concentration ˜100-120 ng/mL). The infusion is stopped at 60 hours.
Twelve mg bolus of ganaxolone is initially given over 2 minutes followed by ganaxolone infusion at a rate of 12 mg/hr (24 ml/h of ganaxolone 0.5 mg/ml solution) for 48 hours. The rate is then reduced to 6 mg/hr for the next 12 hours, which is done to minimize any risks for withdrawal or rebound of anxiety and depression symptoms. The infusion is stopped at 60 hours.
In this cohort dosing is initiated with ganaxolone infusion at a rate of 20 mg/hr (40 ml/h of ganaxolone 0.5 mg/ml solution or matching placebo) for 6 hours followed by ganaxolone 900 mg (four 225 mg capsules per dose) or matching placebo capsules given orally at dinner time for 28 days followed by a 3-day taper (three, two, and one 225 mg capsule(s) per day, respectively).
This initial infusion is targeted to provide a fast onset of antidepressant activity by delivery of rapid plasma exposures to ganaxolone. Then, at dinner time of Day 1 the subjects take their first oral dose of ganaxolone 900 mg (four 225 mg capsules) or matching placebo (4 capsules). […] In previous studies, ganaxolone has been given up to a daily dose of 2000 mg, and at single doses of 1000 mg.
Six samples are collected for pharmacokinetic analysis in Cohorts 1-5 and 12 samples in Cohort 6. […] Seven samples are collected during the inpatient phase of Cohort 6 (including 6 samples on Day 1) followed by collection of 5 samples during the outpatient phase during the study visits for a total of 12 samples in Cohort 6.

[2] = system: BTBR mouse model of autism; conditions: Kazdoba et al, 2016; cited from earlier work
Solubility of ganaxolone = conditions: for solubility: organic solvent or mixture
[3] = system: children and adolescents with fragile X syndrome; conditions: in those with higher baseline anxiety; Ligsay et al, 2017; cited from earlier work
rats or mice = assay: Reproductive and developmental toxicity
dogs = assay: 1-year (chronic oral) dog toxicity study
[4] = 1-year (chronic oral) dog toxicity study; conditions: dog, in vivo, oral, 15 mg/kg/day

In the case of `CC(=O)[C@H]1CC[C@H]2[C@@H]3CC[C@H]4C[C@](C)(O)CC[C@]4(C)[C@H]3CC[C@]12C` [ganaxolone, 3α-hydroxy-3β-methyl-5α-pregnan-20-one], the AUC ([1]; female, human, plasma, iv, 220 ug/kg, AUC24-48, calculated from Table 1C, dose 220 μg/kg/hr (row order of Table 1C)) is reported as 5890 ng·h/mL, the AUC ([1]; female, human, plasma, iv, 260 ug/kg, AUC12-24, calculated from Table 1C, dose 260 μg/kg/hr (row order of Table 1C)) is reported as 3130 ng·h/mL and the AUC ([1]; female, human, plasma, iv, 260 ug/kg, AUC12-48, calculated from Table 1C, dose 260 μg/kg/hr (row order of Table 1C)) is reported as 10100 ng·h/mL. The AUC ([1]; female, human, plasma, iv, 260 ug/kg, AUC24-48, calculated from Table 1C, dose 260 μg/kg/hr (row order of Table 1C)) was 6960 ng·h/mL, the concentration at 12 h ([1]; female, human, plasma, iv, GNX Concentration, Cohort 1: IV 4 mg/hr for 48 h then 2 mg/hr for 12 h, individual subjects, time 12 hr) was 0.0588 µg/mL and the concentration at 24 h ([1]; female, human, plasma, iv, GNX Concentration, Cohort 1: IV 4 mg/hr for 48 h then 2 mg/hr for 12 h, individual subjects, time 24 hr) was 0.0726 µg/mL. For the same molecule, the concentration at 48 h ([1]; female, human, plasma, iv, GNX Concentration, Cohort 1: IV 4 mg/hr for 48 h then 2 mg/hr for 12 h, individual subjects, time 48 hr) was 0.0781 µg/mL, the concentration at 72 h ([1]; female, human, plasma, iv, GNX Concentration, Cohort 1: IV 4 mg/hr for 48 h then 2 mg/hr for 12 h, individual subjects, time 72 hr) was 0.0101 µg/mL and the “Ratio GNX Concentration (ng/mL)/(μg/hr/kg)” value (“Ratio GNX Concentration” below) ([1]; time 12 hrs) was 0.99 (ng/mL)/(μg/hr/kg) and 1.24 (ng/mL)/(μg/hr/kg) and 0.74 (ng/mL)/(μg/hr/kg) and 1.21 (ng/mL)/(μg/hr/kg) (3×) and 0.94 (ng/mL)/(μg/hr/kg) and 0.90 (ng/mL)/(μg/hr/kg) and 0.87 (ng/mL)/(μg/hr/kg) and 0.76 (ng/mL)/(μg/hr/kg) and 1.08 (ng/mL)/(μg/hr/kg) (2×) and 0.53 (ng/mL)/(μg/hr/kg) and 1.14 (ng/mL)/(μg/hr/kg) and 0.83 (ng/mL)/(μg/hr/kg) and 0.89 (ng/mL)/(μg/hr/kg) and 0.97 (ng/mL)/(μg/hr/kg) (3×) and 0.82 (ng/mL)/(μg/hr/kg) and 0.80 (ng/mL)/(μg/hr/kg) (2×) and 1.02 (ng/mL)/(μg/hr/kg) and 0.86 (ng/mL)/(μg/hr/kg) and 0.60 (ng/mL)/(μg/hr/kg) and 1.28 (ng/mL)/(μg/hr/kg). For the same molecule, the “Ratio GNX Concentration” value ([1]; time 24 hrs) was 1.22 (ng/mL)/(μg/hr/kg) (3×) and 1.45 (ng/mL)/(μg/hr/kg) and 0.96 (ng/mL)/(μg/hr/kg) (2×) and 1.53 (ng/mL)/(μg/hr/kg) and 0.28 (ng/mL)/(μg/hr/kg) and 0.63 (ng/mL)/(μg/hr/kg) and 1.12 (ng/mL)/(μg/hr/kg) (3×) and 1.32 (ng/mL)/(μg/hr/kg) (2×) and 0.86 (ng/mL)/(μg/hr/kg) and 1.36 (ng/mL)/(μg/hr/kg) and 1.03 (ng/mL)/(μg/hr/kg) (2×) and 1.16 (ng/mL)/(μg/hr/kg) and 1.34 (ng/mL)/(μg/hr/kg) and 0.95 (ng/mL)/(μg/hr/kg) and 0.92 (ng/mL)/(μg/hr/kg) and 1.48 (ng/mL)/(μg/hr/kg) and 0.55 (ng/mL)/(μg/hr/kg) and 0.13 (ng/mL)/(μg/hr/kg), the “Ratio GNX Concentration” value ([1]; time 48 hrs) was 1.31 (ng/mL)/(μg/hr/kg) and 1.39 (ng/mL)/(μg/hr/kg) and 1.42 (ng/mL)/(μg/hr/kg) and 1.12 (ng/mL)/(μg/hr/kg) and 1.23 (ng/mL)/(μg/hr/kg) (2×) and 1.01 (ng/mL)/(μg/hr/kg) and 0.97 (ng/mL)/(μg/hr/kg) and 1.06 (ng/mL)/(μg/hr/kg) and 0.81 (ng/mL)/(μg/hr/kg) and 1.09 (ng/mL)/(μg/hr/kg) and 0.78 (ng/mL)/(μg/hr/kg) (2×) and 1.02 (ng/mL)/(μg/hr/kg) and 1.76 (ng/mL)/(μg/hr/kg) and 1.17 (ng/mL)/(μg/hr/kg) and 1.47 (ng/mL)/(μg/hr/kg) and 1.20 (ng/mL)/(μg/hr/kg) and 1.60 (ng/mL)/(μg/hr/kg) and 0.55 (ng/mL)/(μg/hr/kg) and 1.56 (ng/mL)/(μg/hr/kg) and 0.80 (ng/mL)/(μg/hr/kg) and 0.84 (ng/mL)/(μg/hr/kg) and the “Ratio GNX Concentration” value ([1]; time 72 hrs) was 0.17 (ng/mL)/(μg/hr/kg) (2×) and 0.31 (ng/mL)/(μg/hr/kg) and 0.28 (ng/mL)/(μg/hr/kg) and 0.33 (ng/mL)/(μg/hr/kg) (2×) and 0.18 (ng/mL)/(μg/hr/kg) and 0.10 (ng/mL)/(μg/hr/kg) and 0.25 (ng/mL)/(μg/hr/kg) and 0.32 (ng/mL)/(μg/hr/kg) and 0.29 (ng/mL)/(μg/hr/kg) and 0.24 (ng/mL)/(μg/hr/kg) and 0.21 (ng/mL)/(μg/hr/kg) (2×) and 0.36 (ng/mL)/(μg/hr/kg) and 0.16 (ng/mL)/(μg/hr/kg) (2×) and 0.13 (ng/mL)/(μg/hr/kg) (2×) and 0.23 (ng/mL)/(μg/hr/kg) (2×) and 0.34 (ng/mL)/(μg/hr/kg) and 0.35 (ng/mL)/(μg/hr/kg) and 0.38 (ng/mL)/(μg/hr/kg) and 0.19 (ng/mL)/(μg/hr/kg) (2×). The Sociability [2] was “improved sociability”, the solubility (Solubility of ganaxolone; 95% alcohol) was 13000 µg/mL (≈ 39.1 mM) and the solubility (Solubility of ganaxolone; polyethylene glycol) was 3100 µg/mL (≈ 9.32 mM). The solubility (Solubility of ganaxolone; propylene glycol) was 3500 µg/mL (≈ 10.5 mM), the Concentration dissolved (Solubility of ganaxolone; using water soluble beta cyclodextrins) was > 1000 µg/mL and the Solubility in water (Solubility of ganaxolone; water) was “insoluble”. The “Anxiety, hyperactivity and attention” value [3] was “reduced anxiety and hyperactivity and improved attention”, the “Fertility and early embryonic development” value (rats or mice; rats) was “no effects on fertility and early embryonic development” and the Teratogenicity (rats or mice; rats or mice) was “not teratogenic”. For the same molecule, the “Findings associated with mean Cmax greater than 1500 ng/mL” value (dogs; 10 and 15 mg/kg/day) was “increased weight and total plasma cholesterol levels”, the “ECG / heart rate finding” value (dogs; after 3 months of dosing, in 4 animals (>190 bpm)) was “transient sinus tachycardia” and the Cmax [4] was > 1.5 µg/mL.

— patent US11266662B2, “Ganaxolone for use in prophylaxis and treatment of postpartum depression” (Marinus Pharmaceuticals, Inc., priority 2018, dated 2022)
